According to patent US20220273659A1, “HETEROCYCLIC COMPOUNDS AS KINASE INHIBITORS” (NUVATION BIO INC., priority 2019, published 2022):
Read-outs that look alike come from different tables or passages of the source.

Columns and labels:
CDK4 = biological target: T1, CDK4 (Homo sapiens, UniProt P11802); test: In vitro kinase inhibition IC50, luminescence (ADP Glo), retinoblastoma substrate; type: biochemical; conditions: read-out: CDK4/D1 IC50
T1 construct: purchased Invitrogen PR8064A
In short: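 CDK4 enzyme (5 nM, Invitrogen) was combined with test compound and a mix of retinoblastoma substrate (1 μM) plus ATP (25 μM) in kinase buffer, 30 μL/well in 96-well half area white plates. After 2H at room temperature, ADP Glo reagent stopped the reaction for 45 min, then detection reagent was added and luminescence was read.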

CDK6 = biological target: T2, CDK6 (Homo sapiens, UniProt Q00534); test: as above; type: biochemical; conditions: read-out: CDK6/D1 IC50
T2 construct: purchased Invitrogen PR8422B
In short: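 Recombinant CDK6 (5 nM) with retinoblastoma substrate (1 μM) and 25 μM ATP, compound at final 0.1–200 nM, incubated 2 h at room temperature. ADP formed detected by ADP-Glo luminescence. IC50 from four-parameter logistic fit of percent inhibition.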

CDK1 (cyclin B) = biological target: T3, CDK1 (cyclin B) (Homo sapiens, UniProt P06493); test: Z'-LYTE kinase assay; type: biochemical
T3 construct: purchased Invitrogen Life Technologies (assay service)
Protocol: The plates were shaken for 30 seconds, and incubated for 60 minutes at room temperature. […] The plates were read on fluorescence plate reader with Dual emission at 445 nm and 520 nm.
The following equations were used for Z′-LYTE™ Screening Assay Data Analysis.

[1] = system: MCF-7 breast adenocarcinoma cells; test: Cancer cell proliferation assay, single agent (cell viability); type: cell-based; conditions: Homo sapiens, MCF7, Table 4; Rb positive; treatment 144 Hr with medium change at 72 Hr; Cell Titer-Glo or resazurin
In short: (§1)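 Cells seeded day 1, then exposed on day 2 to 7–9 compound concentrations (e.g. 1.1 nM–10 μM); BT-549 for 24 h, MCF-7 and DU4475 for 144 h with medium change at 72 h. Viability by CellTiter-Glo or resazurin; IC50 from variable-slope sigmoidal fit.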

[2] = system: DU4475 breast carcinoma cells; test: as above; type: cell-based; conditions: Homo sapiens, DU-4475; Table 4; Rb negative; treatment 144 Hr with medium change at 72 Hr; Cell Titer-Glo or resazurin
In short: as §1

CDK2 (cyclin A) = biological target: T4, CDK2 (cyclin A) (Homo sapiens, UniProt P24941); test: Z'-LYTE kinase assay; type: biochemical
T4 construct: purchased Invitrogen Life Technologies (assay service)
Protocol: IC50 values of compounds against CDK2 (cyclin A) were determined by Z′-LYTE™ These screening assays were performed at Invitrogen Life Technologies (Grand Island, N.Y.) on a low volume NBS, black 384-well plate (#4514, Corning). 0.1 μL of 100×test compound in 100% DMSO (at specific solutions) was mixed with 2.4 μL of Kinase Buffer (50 mM HEPES pH 7.5, 0.01% BRIJ-35, 10 mM MgCl2, 1 mM EGTA), 5 μL of 2× Kinase (1.22-10.3 ng CDK2/cyclin A)/Peptide (2 μM Ser/Thr 12), and 2.5 μL of 4×ATP solution (31 μM). The plates were shaken for 30 seconds, and incubated for 60 minutes at room temperature. Development Reagent Solution (5 μL of 1:1024 dilution) was added to the plates followed with another 30-second plate shake and the plates were further incubated at room temperature for one hour. The plates were read on fluorescence plate reader with Dual emission at 445 nm and 520 nm.
The following equations were used for Z′-LYTE™ Screening Assay Data Analysis. Percent inhibition (100-% activity) was fitted to the “four-parameter logistic model” in XLfit for determination of IC50 values.

T3 sequence (P06493 whole entry): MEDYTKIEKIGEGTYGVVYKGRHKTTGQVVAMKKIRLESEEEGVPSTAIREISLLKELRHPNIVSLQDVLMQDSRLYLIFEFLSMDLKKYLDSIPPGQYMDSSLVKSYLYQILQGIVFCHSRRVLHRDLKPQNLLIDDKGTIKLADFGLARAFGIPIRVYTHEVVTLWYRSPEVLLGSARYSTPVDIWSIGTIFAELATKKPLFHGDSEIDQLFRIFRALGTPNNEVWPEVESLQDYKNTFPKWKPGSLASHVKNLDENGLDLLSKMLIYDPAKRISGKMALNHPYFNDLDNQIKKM
T3 sequence (P14635 whole entry partner): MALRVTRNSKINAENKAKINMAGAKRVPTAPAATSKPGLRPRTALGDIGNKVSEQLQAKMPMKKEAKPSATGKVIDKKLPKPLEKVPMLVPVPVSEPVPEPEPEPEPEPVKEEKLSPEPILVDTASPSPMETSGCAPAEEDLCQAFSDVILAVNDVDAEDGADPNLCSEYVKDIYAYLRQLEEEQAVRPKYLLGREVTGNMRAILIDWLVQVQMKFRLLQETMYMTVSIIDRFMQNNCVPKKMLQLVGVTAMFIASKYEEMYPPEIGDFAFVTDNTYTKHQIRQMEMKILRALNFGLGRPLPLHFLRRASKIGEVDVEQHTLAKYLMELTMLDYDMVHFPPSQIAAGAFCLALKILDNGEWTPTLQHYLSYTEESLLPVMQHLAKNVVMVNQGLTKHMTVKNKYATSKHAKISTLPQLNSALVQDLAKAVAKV
T2 sequence (Q00534 whole entry): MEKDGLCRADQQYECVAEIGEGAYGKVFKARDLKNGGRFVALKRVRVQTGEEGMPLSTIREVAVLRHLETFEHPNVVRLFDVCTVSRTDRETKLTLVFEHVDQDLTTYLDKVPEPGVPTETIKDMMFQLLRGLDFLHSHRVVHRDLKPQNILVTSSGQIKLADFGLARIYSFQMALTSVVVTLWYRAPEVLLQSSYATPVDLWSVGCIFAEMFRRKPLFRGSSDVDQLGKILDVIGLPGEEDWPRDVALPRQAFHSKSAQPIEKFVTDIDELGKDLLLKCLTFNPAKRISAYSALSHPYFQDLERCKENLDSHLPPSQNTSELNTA
T2 sequence (P24385 whole entry partner): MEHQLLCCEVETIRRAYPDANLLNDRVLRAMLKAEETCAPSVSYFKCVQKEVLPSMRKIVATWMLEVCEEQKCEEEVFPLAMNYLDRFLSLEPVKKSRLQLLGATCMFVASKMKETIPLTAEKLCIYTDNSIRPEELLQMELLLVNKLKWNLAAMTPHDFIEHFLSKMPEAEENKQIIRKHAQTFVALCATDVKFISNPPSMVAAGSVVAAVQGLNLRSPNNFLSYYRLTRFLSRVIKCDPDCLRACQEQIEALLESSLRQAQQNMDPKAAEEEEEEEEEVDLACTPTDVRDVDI
T1 sequence (P11802 whole entry): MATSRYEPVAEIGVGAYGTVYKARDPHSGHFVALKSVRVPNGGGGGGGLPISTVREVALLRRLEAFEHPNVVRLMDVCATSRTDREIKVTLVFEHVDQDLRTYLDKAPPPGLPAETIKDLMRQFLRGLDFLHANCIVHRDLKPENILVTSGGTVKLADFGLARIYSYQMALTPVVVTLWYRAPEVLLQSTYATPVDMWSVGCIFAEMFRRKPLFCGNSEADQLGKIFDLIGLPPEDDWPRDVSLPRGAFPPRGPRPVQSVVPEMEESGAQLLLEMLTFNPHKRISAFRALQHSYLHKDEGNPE
T1 sequence (P24385 whole entry partner): as the sequence (P24385 whole entry partner) above

IC50 (CDK4) [nM] | IC50 (CDK6) [nM] | IC50 (CDK1 (cyclin B)) [nM] | IC50 [1] [nM] | IC50 [2] [nM] | IC50 (CDK2 (cyclin A)) [nM] | IC50 (CDK1 (cyclin B); read-out: CDK1/B IC50) [nM] | Structure (SMILES)
5 | 4 | 118 | 270 | 870 | 9.5 |  | CS(=O)(=O)N1CCC(Nc2ncc3cc(C#N)c(=O)n([C@@H]4C[C@H]5CC[C@@H]4C5)c3n2)CC1 [Compound No. 386, 8-((1R,2R,4S)-bicyclo[2.2.1]heptan-2-yl)-2-(1-(methylsulfonyl)piperidin-4-ylamino)-7-oxo-7,8-dihydropyrido[2,3-d]pyrimidine-6-carbonitrile]
49 | 65 | 2620 | 2820 | > 10000 | 96 |  | CS(=O)(=O)N1CCC(Nc2ncc3cc(C#N)c(=O)n([C@@H]4CCC(F)(F)C4)c3n2)CC1 [Compound No. 385, (R)-8-(3,3-difluorocyclopentyl)-2-(1-(methylsulfonyl)piperidin-4-ylamino)-7-oxo-7,8-dihydropyrido[2,3-d]pyrimidine-6-carbonitrile]
3 | 3 |  | 660 | 710 | 4.5 | 97 | CS(=O)(=O)N1CCC(Nc2cc3c(cn2)cc(C#N)c(=O)n3C2CCCC2)CC1 [Compound No. 303, 1-cyclopentyl-7-((1-(methylsulfonyl)piperidin-4-yl)amino)-2-oxo-1,2-dihydro-1,6-naphthyridine-3-carbonitrile]
20 | 17 | 1100 | 580 | 7060 | 88 |  | CS(=O)(=O)N1CCC(Nc2ncc3cc(C#N)c(=O)n([C@H]4C[C@@H]5CC[C@H]4C5)c3n2)CC1 [Compound No. 387, 8-((1S,2S,4R)-bicyclo[2.2.1]heptan-2-yl)-2-(1-(methylsulfonyl)piperidin-4-ylamino)-7-oxo-7,8-dihydropyrido[2,3-d]pyrimidine-6-carbonitrile]
7 | 5.5 |  | 107 | 670 | 7 | 87 | CS(=O)(=O)N1CCC(Nc2ncc3cc(C#N)c(=O)n(C45CC(C4)C5)c3n2)CC1 [Compound No. 369, 8-(bicyclo[1.1.1]pentan-1-yl)-2-((1-(methylsulfonyl)piperidin-4-yl)amino)-7-oxo-7,8-dihydropyrido[2,3-d]pyrimidine-6-carbonitrile]
14 | 25 |  | 515 | 2600 | 3410 | > 5000 | N#Cc1cc2cnc(NC3CCN(S(=O)(=O)C(F)(F)F)CC3)nc2n(C2CCCC2)c1=O [Compound No. 371, 8-cyclopentyl-7-oxo-2-((1-((trifluoromethyl)sulfonyl)piperidin-4-yl)amino)-7,8-dihydropyrido[2,3-d]pyrimidine-6-carbonitrile]
6.5 | 8 | 362 | 495 | 1520 | 20 |  | CC(C)S(=O)(=O)N1CCC(Nc2ncc3cc(C#N)c(=O)n(C4CCCC4)c3n2)CC1 [Compound No. 355, 8-cyclopentyl-2-((1-(isopropylsulfonyl)piperidin-4-yl)amino)-7-oxo-7,8-dihydropyrido[2,3-d]pyrimidine-6-carbonitrile]
24 | 20 | 585 | 1600 | 5680 | 28 |  | CS(=O)(=O)N1CCC(Nc2ncc3cc(C#N)c(=O)n([C@H]4CCC(F)(F)C4)c3n2)CC1 [Compound No. 384, (S)-8-(3,3-difluorocyclopentyl)-2-(1-(methylsulfonyl)piperidin-4-ylamino)-7-oxo-7,8-dihydropyrido[2,3-d]pyrimidine-6-carbonitrile]
30 | 15 |  | 1220 | 715 | 5.5 | 55 | C[C@@]1(O)CCC[C@H]1n1c(=O)c(C#N)cc2cnc(NC3CCN(S(C)(=O)=O)CC3)nc21 [Compound No. 380, 8-((1R,2R)-2-hydroxy-2-methylcyclopentyl)-2-(1-(methylsulfonyl)piperidin-4-ylamino)-7-oxo-7,8-dihydropyrido[2,3-d]pyrimidine-6-carbonitrile]

Second part, the compound before the results:

Structure (SMILES) | IC50 (CDK4) [nM] | IC50 (CDK6) [nM] | IC50 (CDK1 (cyclin B)) [nM] | IC50 [1] [nM] | IC50 [2] [nM] | IC50 (CDK2 (cyclin A)) [nM] | IC50 (CDK1 (cyclin B); read-out: CDK1/B IC50) [nM]
CCCCCCc1ccc(S(=O)(=O)N2CCC(Nc3ncc4cc(C#N)c(=O)n(C5CCCC5)c4n3)CC2)cc1 [Compound No. 382, 8-cyclopentyl-2-(1-(4-hexylphenylsulfonyl)piperidin-4-ylamino)-7-oxo-7,8-dihydropyrido[2,3-d] pyrimidine-6-carbonitrile] | > 200 | > 200 |  | 1840 | > 10000 | 209 | > 4860
CN(C)CCN1CCc2cc(Nc3ncc4cc(C#N)c(=O)n(C5CCCC5)c4n3)ccc2C1 [Compound No. 63, 8-cyclopentyl-2-((2-(2-(dimethylamino)ethyl)-1,2,3,4-tetrahydroisoquinolin-6-yl)amino)-7-oxo-7,8-dihydropyrido[2,3-d]pyrimidine-6-carbonitrile] | 11 | 4 |  | 266 | 1440 | 190 | 655
N#Cc1cc2cnc(Nc3ccc4c(c3)CCN(C(=O)CO)C4)nc2n(C2CCCC2)c1=O [Compound No. 70, 8-cyclopentyl-2-((2-(2-hydroxyacetyl)-1,2,3,4-tetrahydroisoquinolin-6-yl)amino)-7-oxo-7,8-dihydropyrido[2,3-d]pyrimidine-6-carbonitrile] | 12 | 6 |  | 818 | 1180 | 27 | 354
N#Cc1cc2cnc(Nc3ccc4c(c3)CCN(CC(N)=O)C4)nc2n(C2CCCC2)c1=O [Compound No. 69, 2-(6-((6-cyano-8-cyclopentyl-7-oxo-7,8-dihydropyrido[2,3-d]pyrimidin-2-yl)amino)-3,4-dihydroisoquinolin-2(1H)-yl)acetamide] | 12 | 7 |  | 1990 | 1680 | 252 | 683
CS(=O)(=O)N1CCC(Nc2ncc3cc(C4CC4)c(=O)n(C4CCCC4)c3n2)CC1 [Compound No. 379, 8-cyclopentyl-6-cyclopropyl-2-((1-(methylsulfonyl)piperidin-4-yl)amino)pyrido[2,3-d]pyrimidin-7(8H)-one] | 16 | 67 |  | 1220 | 4720 | 434 | > 3620
N#Cc1cc2cnc(Nc3ccc4c(n3)CCNC4)nc2n(C2CCCC2)c1=O [Compound No. 61, 8-cyclopentyl-7-oxo-2-((5,6,7,8-tetrahydro-1,6-naphthyridin-2-yl)amino)-7,8-dihydropyrido[2,3-d]pyrimidine-6-carbonitrile] | 98 | 54 |  | 2730 | 4480 | 2780 | > 5000
N#Cc1cc2cnc(Nc3ccc4c(c3)CCNC4)nc2n(C23CC(C2)C3)c1=O [Compound No. 370, 8-(bicyclo[1.1.1]pentan-1-yl)-7-oxo-2-((1,2,3,4-tetrahydroisoquinolin-6-yl)amino)-7,8-dihydropyrido[2,3-d]pyrimidine-6-carbonitrile] | 124 | 47 |  | 445 | 1220 | 242 | 2730
